In ChEMBL document CHEMBL1201861, “Genomics of Drug Sensitity in Cancer screening data, Wellcome Trust Sanger Institute”:

Experiments:
Type in all cases: functional, cell-based
NCI-H716 = experiment: cells; details: Homo sapiens;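 also: growth inhibition of human NCI-H716 cells, measured by a cell viability assay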
Description: SANGER: Inhibition of human NCI-H716 cell growth in a cell viability assay.

RPMI 8402 = experiment: SANGER: Inhibition of human RPMI-8402 cell growth in a cell viability assay.
Daudi = experiment: cells; details: Homo sapiens;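 also: growth inhibition of Daudi cells, read out by a viability assay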
Description: SANGER: Inhibition of human Daudi cell growth in a cell viability assay.

MDA-MB-134-VI = experiment: cells; details: Homo sapiens
Description: SANGER: Inhibition of human MDA-MB-134-VI cell growth in a cell viability assay.

NCI-H2081 = experiment: cells; details: Homo sapiens;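 also: growth inhibition of human NCI-H2081 cells, read out with a cell viability assay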
Description: SANGER: Inhibition of human NCI-H2081 cell growth in a cell viability assay.

CPC-N = experiment: cells; details: Homo sapiens;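 also: growth inhibition of CPC-N cells, with a cell viability assay as the readout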
Description: SANGER: Inhibition of human CPC-N cell growth in a cell viability assay.

NCI-H345 = experiment: cells; details: Homo sapiens;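 also: growth inhibition of NCI-H345 cells measured with a cell viability assay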
Description: SANGER: Inhibition of human NCI-H345 cell growth in a cell viability assay.

DMS-153 = experiment: cells; details: Homo sapiens
Description: SANGER: Inhibition of human DMS-153 cell growth in a cell viability assay.

CESS = experiment: SANGER: Inhibition of human CESS cell growth in a cell viability assay.
ECC4 = experiment: cells; details: Homo sapiens;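 also: growth inhibition of ECC4 cells, read out with a cell viability assay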
Description: SANGER: Inhibition of human ECC4 cell growth in a cell viability assay.

SK-MM-2 = experiment: cells; details: Homo sapiens;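 also: growth inhibition of human SK-MM-2 cells, read out with a cell viability assay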
Description: SANGER: Inhibition of human SK-MM-2 cell growth in a cell viability assay.

CAL-148 = experiment: cells; details: Homo sapiens
Description: SANGER: Inhibition of human CAL-148 cell growth in a cell viability assay.

NCI-H2141 = experiment: cells; details: Homo sapiens;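 also: growth inhibition of human NCI-H2141 cells, read out with a cell viability assay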
Description: SANGER: Inhibition of human NCI-H2141 cell growth in a cell viability assay.

SNU-16 = experiment: cells; details: Homo sapiens;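 also: growth inhibition of human SNU-16 cells, determined with a cell viability readout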
Description: SANGER: Inhibition of human NCI-SNU-16 cell growth in a cell viability assay.

LP-1 = experiment: cells; details: Homo sapiens;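 also: growth inhibition of human LP-1 cells, with the read-out taken from a cell viability assay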
Description: SANGER: Inhibition of human LP-1 cell growth in a cell viability assay.

NB12 = experiment: cells; details: Homo sapiens;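 also: growth inhibition of human NB12 cells, read out by a cell viability assay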
Description: SANGER: Inhibition of human NB12 cell growth in a cell viability assay.

SMILES | IC50 (NCI-H716) | IC50 (RPMI 8402) | IC50 (Daudi) | IC50 (MDA-MB-134-VI) | IC50 (NCI-H2081) | IC50 (CPC-N) | IC50 (NCI-H345) | IC50 (DMS-153) | IC50 (CESS) | IC50 (ECC4) | IC50 (SK-MM-2) | IC50 (CAL-148) | IC50 (NCI-H2141) | IC50 (SNU-16) | IC50 (LP-1) | IC50 (NB12)
Cc1[nH]c(/C=C2\C(=O)Nc3ccc(S(=O)(=O)Cc4c(Cl)cccc4Cl)cc32)c(C)c1C(=O)N1CCC[C@@H]1CN1CCCC1 [PHA-665752] | > 2 µM | > 2 µM | > 2 µM | > 2 µM | > 2 µM | > 2 µM | > 2 µM | > 2 µM | > 2 µM | > 2 µM | > 2 µM | > 2 µM | > 2 µM | > 2 µM | > 2 µM | –
CCNc1cc(N[C@H]2CC[C@@H](O)CC2)nc(Nc2ccc3c(ccn3Cc3ccccc3)c2)n1 | > 5.12 µM | 3.48 µM | > 5.12 µM | > 5.12 µM | > 5.12 µM | > 5.12 µM | > 5.12 µM | > 5.12 µM | > 5.12 µM | > 5.12 µM | > 5.12 µM | > 5.12 µM | > 5.12 µM | > 5.12 µM | > 5.12 µM | –
CCn1c(-c2nonc2N)nc2cnc(Oc3cccc(NC(=O)c4ccc(OCCN5CCOCC5)cc4)c3)cc21 [GSK-269962A] | > 2.5 µM | > 2.5 µM | 2.1 µM | > 2.5 µM | > 2.5 µM | > 2.5 µM | > 2.5 µM | > 2.5 µM | > 2.5 µM | > 2.5 µM | > 2.5 µM | > 2.5 µM | > 2.5 µM | > 2.5 µM | > 2.5 µM | > 2.5 µM
COc1cc(C)c(Sc2cnc(NC(=O)c3ccc(CNC(C)C(C)(C)C)cc3)s2)cc1C(=O)N1CCN(C(C)=O)CC1 (configuration not stated) | > 10.2 µM | > 10.2 µM | > 10.2 µM | > 10.2 µM | > 10.2 µM | > 10.2 µM | > 10.2 µM | > 10.2 µM | > 10.2 µM | > 10.2 µM | > 10.2 µM | > 10.2 µM | > 10.2 µM | > 10.2 µM | > 10.2 µM | –
Cc1ccc(NC(=O)c2cccc(C(C)(C)C#N)c2)cc1Nc1ccc2ncn(C)c(=O)c2c1 | > 4 µM | > 4 µM | > 4 µM | > 4 µM | > 4 µM | > 4 µM | > 4 µM | > 4 µM | > 4 µM | > 4 µM | > 4 µM | > 4 µM | > 4 µM | > 4 µM | > 4 µM | > 4 µM
Cc1nc(Nc2ncc(C(=O)Nc3c(C)cccc3Cl)s2)cc(N2CCN(CCO)CC2)n1 [DASATINIB] | > 1.28 µM | > 1.28 µM | > 1.28 µM | > 1.28 µM | > 1.28 µM | > 1.28 µM | > 1.28 µM | > 1.28 µM | > 1.28 µM | > 1.28 µM | > 1.28 µM | > 1.28 µM | > 1.28 µM | > 1.28 µM | > 1.28 µM | –
Cc1n[nH]c2ccc(-c3cncc(OC[C@@H](N)Cc4c[nH]c5ccccc45)c3)cc12 [A-443654] | > 1.02 µM | 0.184 µM | 0.355 µM | 0.489 µM | > 1.02 µM | 0.304 µM | 0.75 µM | 0.669 µM | 0.191 µM | > 1.02 µM | 0.623 µM | 0.0883 µM | 0.54 µM | > 1.02 µM | > 1.02 µM | –
